This is an account of results in patent US11981918B2, “Differentiation technique to generate dopaminergic neurons from induced pluripotent stem cells” (CEDARS-SINAI MEDICAL CENTER, priority 2018, dated 2024).

In data set [1] the test system is α-Synuclein. In words: α-Synuclein protein in iPSC-derived DaNs treated with lysosomal agonists (western blot). Format: cell-based, human. The note with it: for amount of α-Synuclein protein: DaNs from control lines; for amount of α-Synuclein protein / synuclein levels: treated for 3 days starting at day 27; for synuclein levels: EOSPD DaNs; for α-Synuclein levels: both control and PD DaNs, all treated lines. An excerpt: FIG. 5: Treatment with lysosomal agonists and Elevated p-PKCa in PD lines. […] Baseline levels of p-PKCa in d30 DaNs (b). Day 30 DaNs treated with PEP from multiple PD and control lines(c). Timecourse of PEP treatment and synuclein levels (d) Timecourse of PEP treatment SNCA (e) and TH (f) gene expression.
To test if the Inventors could reduce synuclein levels in our EOSPD DANs through activation of lysosomal specific pathways, the Inventors selected 3 lysosomal agonists. […] Starting at day 27, DaNs were treated for 3 days with the above lysosomal agonists.
In general terms: A western blot detects proteins with antibodies after separation by electrophoresis.

For data set [2], the system named is PC12 cell model. The conditions noted are these: cited from earlier work.
The subject of data set [3] is α-Synuclein. The conditions noted are these: cited from earlier work.
For data set [4], the system named is various cancer cell lines and primary acute myeloid leukaemia (AML) cells. The note with it: cited from earlier work.
For data set [5], the system named is cleaved caspase 3 (CC3). In words: Cleaved caspase 3 in DaNs after PEP treatment. The note with it: DaNs on drug treatment, most easily observed in PD cells; listed as PEP. Format: cell-based, human. From the text: (§1) The elevated phosphorylation of PKCa was absent in the undifferentiated iPSCs and no clear pattern was evident in peripheral blood from the individual patients indicating specificity to the differentiated DaNs. […].
(§2) It is likely that the toxicity of PEP is more specific to highly proliferative cells whereas our differentiated neurons are largely post mitotoic.

For data set [6], the system named is TH. The data set is described as follows: In vivo TH in striatum after injection of PEP into the ventricles of WT mice. The arrangement: species or system mouse. The note with it: WT mice, 0.3, 3 and 30 μM injected into the ventricles, 1 and 5 days post injection.
Data set [7] concerns synuclein. The data set is described as follows: In vivo synuclein in striatum after injection of PEP into the ventricles of WT mice. The arrangement: species or system mouse. The note with it: WT mice, 0.3, 3 and 30 μM injected into the ventricles, 1 and 5 days post injection.
The test system of data set [8] is SNCA. In words: SNCA gene expression timecourse of PEP treatment in DaNs. Format: cell-based, human. The conditions noted are these: 4 hours after PEP treatment. Here is the method:
(§3) FIG. 5: Treatment with lysosomal agonists and Elevated p-PKCa in PD lines. Western blot and relative band quantifications of d30 DaNs treated with indicated compounds for 72 hours (a). Baseline levels of p-PKCa in d30 DaNs (b). Day 30 DaNs treated with PEP from multiple PD and control lines(c). Timecourse of PEP treatment and synuclein levels (d) Timecourse of PEP treatment SNCA (e) and TH (f) gene expression. Confirmation of elevated synuclein and p-PKCa in addition control and PD lines (g)
as §1

In data set [9] the test system is DaN cultures. The format is cell-based, human. The note with it: DaN cultures on drug treatment.
Excerpt: as §2

The test system of data set [10] is LAMP1. The data set is described as follows: LAMP1 protein in DaNs after PEP treatment. Format: cell-based, human. The conditions noted are these: PD cells.
Data set [11] relates to p-PKCa. In words: Phosphorylated PKC alpha in iPSC-derived DaNs after PEP005 treatment (western blot). Format: cell-based, human.
In data set [12] the test system is TH. The data set is described as follows: TH gene expression timecourse of PEP treatment in DaNs. Format: cell-based, human. The note with it: roughly 8 hours after initial exposure. Here is the method:
as §3, §1

Data set [13] concerns leukemic cell lines and primary AML cells. The note with it: by activating PKCδ and sustained activation of ERK1/2; cited from earlier work.
The test system of data set [14] is PKC C1 domains. The conditions noted are these: cited from earlier work.
Data set [15] concerns TH enzyme. In words: TH enzyme amount in iPSC-derived DaNs treated with lysosomal agonists (western blot). The format is cell-based, human. The conditions noted are these: both control and PD DaNs, treated for 3 days.
The subject of data set [16] is LC3. The data set is described as follows: LC3 protein in DaNs after PEP treatment. The format is cell-based, human. The note with it: PD cells.
For data set [17], the system named is P53. In words: P53 level in DaN cultures under proteasome inhibition. The note with it: 24 hrs. Format: cell-based, human. An excerpt: (§4) […]. Western blot showing synuclein degradation under 24 hrs of MG132 proteosomal inhibitor (e). Western blot showing reduced LAMP1 protein in PD DaNs (f). […]. Data were normalized to 02iCTR for each differentiation and presented as a fold change (g). NIRF detection of oxidized dopamine from D30 DaN lysates (h)
(§5) Protein degradation can be largely divided into protosomal and autophagy/lysosomal degradation pathways.

Data set [18] concerns α-Synuclein. In words: α-Synuclein level in DaN cultures under proteasome inhibition. The note with it: 24 hrs. The format is cell-based, human.
Excerpt: as §4, §5

The subject of data set [19] is neurons in Brain-Chip. Format: cell-based, human.
The mark [20] stands for this setting: time-course, control and PD DaNs.

“Also recorded” adds a separate entry of the source. Where a SMILES comes first, the peptide text is derived from it. The star is where a group is joined. Cbz = O=C(OCc1ccccc1)*

For the compound `C=CCNc1ncnc2ccc(Br)cc12` [SMER28], in data set [1], the “amount of α-Synuclein protein” value is on record as “significantly reduced” and the synuclein levels result is “only the PKC agonist PEP005 substantially reduced synuclein levels”. For the same compound, in data set [2], the “Huntington and α-Synuclein aggregates” value was “reduce”.

As to `OC[C@H]1O[C@H](O[C@H]2O[C@H](CO)[C@@H](O)[C@H](O)[C@H]2O)[C@H](O)[C@@H](O)[C@@H]1O` [Trehalose], in data set [1], the “amount of α-Synuclein protein” value was “not Trehalose significantly reduced” and the synuclein levels entry was “only the PKC agonist PEP005 substantially reduced synuclein levels”. The “clearance of α-Synuclein” value in data set [3] is recorded as “promote clearance”.

For the compound `C/C=C(/C)C(=O)O[C@H]1C(C)=C[C@]23C(=O)[C@@H](C=C(CO)[C@@H](O)[C@]12O)[C@H]1[C@@H](C[C@H]3C)C1(C)C` [PEP005, ingenol-3-angelate], the proliferation entry in data set [4] was “inhibiting proliferation”. Besides, the “amount of α-Synuclein protein” value in data set [1] is given as “significantly reduced”. Moreover, the synuclein levels entry in data set [1] is listed as “substantially reduced”. Besides, the α-Synuclein levels entry in [1] was “reduced”; in [1] (listed as PEP), “reduced synuclein in all treated lines”. Besides, the “time in which α-Synuclein is degraded in response to drug treatment” value in data set [1] (setting [20]) was no more than 24 h. For the same compound, in [5], the “cleaved (active) caspase 3” value is recorded as “marked decrease; also recorded: decrease in the amount of active caspase 3”. Further, the “TH in mouse striatum” value in data set [6] is listed as “increase in TH”. Moreover, the “synuclein in mouse striatum” value in [7] was “Reduction of synuclein”. The SNCA gene expression result in [8] was “downregulated”. Further, the LDH result in [9] is reported as “nor do the Inventors see an increase in LDH”. Also, the LAMP1 response result is reported as “does not appear to be replicated” in [10] and “neither LAMP1 nor LC3 respond” in data set [10] (listed as PEP). The “phosphorylation of PKCa” value in data set [11] (1 μM for 3 days, DaNs from all iPSC lines) is on record as “clearly ablated”. Moreover, the “PKC alpha phosphorylation signal” value in data set [11] (control and PD DaNs, at endpoint of 72 hours treatment) is given as “completely ablating this signal”. Further, the “time in which p-PKCa is degraded in response to drug treatment” value in [11] (setting [20]) was no more than 24 h. The TH gene expression result in data set [12] was “upregulated”. Besides, the apoptosis entry in data set [13] was “induces apoptosis”. In addition, the “selectivity for individual PKC isoforms” value in data set [14] is given as “no selectivity”. In addition, the “amount of TH enzyme” value was “increased amount of TH enzyme” in data set [15] and “increase in the amount of TH” in data set [15] (listed as PEP). For the same compound, the LC3 response result in data set [16] was “neither LAMP1 nor LC3 respond”.

As for `CC(C)C[C@@H](C=O)NC(=O)[C@H](CC(C)C)NC(=O)[C@H](CC(C)C)NC(=O)OCc1ccccc1` [MG132] (Cbz-Leu-Leu-Leu-aldehyde), in data set [17], the P53 level entry is “accumulation of P53”. In addition, in data set [18], the α-Synuclein levels entry is on record as “no substantial change”.

Regarding `NC1=N[C@H](O)[C@H]2[C@H]3O[C@]4(O)O[C@@H]([C@@H](O)[C@@]2(N1)[C@@H]4O)[C@]3(O)CO` [tetrodotoxin], in data set [19], the “neuron activity (calcium imaging)” value was “Neuron activity ablated”.
